In patent US20260224548A1 (priority 2022, published 2026):
Where two headings read alike, the source gives them in different places.

Assays:
HsEH = molecular target: T1, HsEH (Homo sapiens, UniProt P34913); assay: biochemical; format: biochemical
T1 sequence (P34913 1-555): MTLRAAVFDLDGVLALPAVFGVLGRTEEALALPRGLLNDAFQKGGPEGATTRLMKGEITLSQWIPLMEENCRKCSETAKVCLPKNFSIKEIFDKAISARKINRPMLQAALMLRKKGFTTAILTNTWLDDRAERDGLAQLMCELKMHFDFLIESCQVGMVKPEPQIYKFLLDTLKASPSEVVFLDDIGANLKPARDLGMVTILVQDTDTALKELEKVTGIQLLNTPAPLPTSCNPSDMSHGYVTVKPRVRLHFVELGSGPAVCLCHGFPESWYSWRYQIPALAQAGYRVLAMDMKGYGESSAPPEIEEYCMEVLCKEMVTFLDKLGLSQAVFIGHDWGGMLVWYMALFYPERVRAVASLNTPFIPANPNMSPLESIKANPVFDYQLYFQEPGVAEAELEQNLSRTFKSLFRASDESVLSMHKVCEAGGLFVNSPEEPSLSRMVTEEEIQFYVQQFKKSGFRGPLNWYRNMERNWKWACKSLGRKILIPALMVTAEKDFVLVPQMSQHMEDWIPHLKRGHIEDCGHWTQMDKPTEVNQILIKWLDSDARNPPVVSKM
Excerpt: (§1) Detection principle: a specific substrate, (3-phenyl-oxy)-acetic acid cyano-(6-methoxy-naphthalen-2-yl)methyl ester, namely PHOME, is non-fluorescent but can be hydrolyzed under the action of sEH enzyme to generate a product 6-methoxy-2-naphthaldehyde. The 6-methoxy-2-naphthaldehyde can emit fluorescence with a wavelength of 465 nm under 330 nm light wave excitation, and an intensity of the detected fluorescence signal is inversely proportional to an inhibitory effect on the sEH enzyme. Based on the above principle, the inhibition rates of samples with different concentrations were calculated compared with the positive control group. The IC50 value of the compound was calculated based on the inhibition rate and concentration using SPSS 20 software.
(§2) 25 mM Tris-HCl buffer (pH=7.4, containing 0.1 mg/mL BSA): […] BAS was added to 12.5 mL of 1 M Tris-HCl buffer, followed by diluting with purified water, and a resulting mixture was adjusted to a pH value of 7.4 with hydrochloric acid, and diluted to 500 mL.
(§3) PHOME solution: 0.79 mg PHOME was dissolved in 106 μL DMSO to obtain a 20 mM PHOME solution, which was diluted to ⅓ mM with Tris-HCl buffer before use.
(§4) sEH solution: sEH (5 mg/mL) stock solution was stored in a refrigerator at −80° C. and diluted to 4 μg/mL with 25 mM Tris-HCl buffer before use.
(§5) A sample powder to be tested was dissolved in DMSO to a 20 mM solution, stored in a refrigerator at −20° C. for later use, and diluted with Tris-HCl buffer to corresponding concentrations when used.
(§6) Experimental design: solvent group, 100% activity group (A), inhibitor group (B), positive control group (C), as shown in Table 1.
(§7) Three replicate wells were set for each sample, and the average value of the three replicate wells was the fluorescence value (F) of the compound to be tested. […] The IC50 value of the compound was calculated based on the inhibition rate and concentration using SPSS 20 software.

MsEH = molecular target: T2, MsEH (Mus musculus, UniProt P34914); assay: sEH inhibitory activity, PHOME fluorescence assay (MsEH); format: biochemical
T2 sequence (P34914 1-554): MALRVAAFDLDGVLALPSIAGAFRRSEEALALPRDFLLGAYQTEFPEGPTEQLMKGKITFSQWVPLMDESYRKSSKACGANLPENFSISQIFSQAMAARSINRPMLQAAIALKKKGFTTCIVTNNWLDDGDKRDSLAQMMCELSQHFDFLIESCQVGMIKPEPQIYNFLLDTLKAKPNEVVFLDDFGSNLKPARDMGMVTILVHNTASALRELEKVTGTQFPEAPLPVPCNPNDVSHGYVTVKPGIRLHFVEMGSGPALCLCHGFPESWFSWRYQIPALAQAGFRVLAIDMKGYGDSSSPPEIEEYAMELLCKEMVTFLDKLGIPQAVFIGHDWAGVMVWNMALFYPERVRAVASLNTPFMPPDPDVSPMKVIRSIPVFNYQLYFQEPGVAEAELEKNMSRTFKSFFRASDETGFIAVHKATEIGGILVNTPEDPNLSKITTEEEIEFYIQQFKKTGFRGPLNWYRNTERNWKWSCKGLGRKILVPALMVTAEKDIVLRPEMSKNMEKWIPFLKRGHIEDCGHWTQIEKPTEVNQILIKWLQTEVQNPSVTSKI
Excerpt: as §1, §2, §3, §4, §5, §6, §7

[1] = PHOME substrate 50 μM, sEH 400 ng/ml, 37° C., 10 min, fluorescence 330/465 nm, read-out: HsEH IC50 (nM) Inhibitory activity against HsEH

SMILES	IC50 (HsEH; [1]) [nM]	IC50 (MsEH) [nM]	IC50 (HsEH) [nM]
CCN(CC)C(=O)[C@H]1CCCN(Cc2ccc(NC(=O)NC34CC5CC(C)(CC(C)(C5)C3)C4)c(F)c2)C1 [CL-106, (S)-1-(4-(3-((1r,3R,5S,7S)-3,5-dimethyladamantan-1-yl)ureido)-3-fluorobenzyl)-N,N-diethylpiperidine-3-carboxamide]	0.35	0.5	–
CC12CC3CC(C)(C1)CC(NC(=O)Nc1ccc(CN4CCC[C@H](C(=O)N(CCO)CCO)C4)cc1F)(C3)C2 [CL-107, (S)-1-(4-(3-((1r,3R,5S,7S)-3,5-dimethyladamantan-1-yl)ureido)-3-fluorobenzyl)-N,N-bis(2-hydroxyethyl) piperidine-3-carboxamide]	0.28	0.29	–
CC12CC3CC(C)(C1)CC(NC(=O)Nc1ccc(CN4CCC(C(=O)N(CCO)CCO)CC4)cc1F)(C3)C2 [CL-109, 1-(4-(3-((1r,7r)-3,5-dimethyladamantan-1-yl)ureido)-3-fluorobenzyl)-N,N-bis(2-hydroxyethyl) piperidine-4-carboxamide]	6.72	0.55	–
CC12CC3CC(C)(C1)CC(NC(=O)Nc1ccc(CN4CCC[C@H](C(=O)NC(CO)CO)C4)cc1F)(C3)C2 [CL-112, (S)—N-(1,3-dihydroxypropan-2-yl)-1-(4-(3-((1r,3R,5S,7S)-3,5-dimethyladamantan-1-yl)ureido)-3-fluorobenzyl) piperidine-3-carboxamide]	0.28	0.35	–
CC(O)CNC(=O)[C@H]1CCCN(Cc2ccc(NC(=O)NC34CC5CC(C)(CC(C)(C5)C3)C4)c(F)c2)C1 (stereo partly drawn) [CL-113, (3S)-1-(4-(3-((1r,3R,5S,7S)-3,5-dimethyladamantan-1-yl)ureido)-3-fluorobenzyl)-N-(2-hydroxypropyl) piperidine-3-carboxamide]	0.28	0.58	–
CC12CC3CC(C)(C1)CC(NC(=O)Nc1ccc(CN4CCC[C@H](C(=O)NCCO)C4)cc1F)(C3)C2 [CL-114, (S)-1-(4-(3-((1r,3R,5S,7S)-3,5-dimethyladamantan-1-yl)ureido)-3-fluorobenzyl)-N-(2-hydroxyethyl) piperidine-3-carboxamide]	0.63	0.18	–
CC12CC3CC(C)(C1)CC(NC(=O)Nc1ccc(CN4CCC[C@H](C(=O)NC(CO)(CO)CO)C4)cc1F)(C3)C2 [CL-115, (S)—N-(1,3-dihydroxy-2-(hydroxymethyl)propan-2-yl)-1-(4-(3-((1r,3R,5S,7S)-3,5-dimethyladamantan-1-yl)ureido)-3-fluorobenzyl) piperidine-3-carboxamide]	0.14	0.32	–
CC12CC3CC(C)(C1)CC(NC(=O)Nc1ccc(CN4CCC[C@H](C(=O)N5CCN(CCO)CC5)C4)cc1F)(C3)C2 [CL-116, 1-((1r,3R,5S,7S)-3,5-dimethyladamantan-1-yl)-3-(2-fluoro-4-(((S)-3-(4-(2-hydroxyethyl)piperazine-1-carbonyl)piperidin-1-yl)methyl)phenyl) urea]	0.98	0.55	–
CC12CC3CC(C)(C1)CC(NC(=O)Nc1ccc(CN4CCC(C(=O)NC(CO)(CO)CO)CC4)cc1F)(C3)C2 [CL-117, N-(1,3-dihydroxy-2-(hydroxymethyl)propan-2-yl)-1-(4-(3-((1r,7r)-3,5-dimethyladamantan-1-yl)ureido)-3-fluorobenzyl) piperidine-4-carboxamide]	6.51	0.12	–
CC12CC3CC(C)(C1)CC(NC(=O)Nc1ccc(CN4CCC(C(=O)NC(CO)CO)CC4)cc1F)(C3)C2 [CL-119, N-(1,3-dihydroxypropan-2-yl)-1-(4-(3-((1r,7r)-3,5-dimethyladamantan-1-yl)ureido)-3-fluorobenzyl) piperidine-4-carboxamide]	–	2.25	31.6
CC(O)CNC(=O)C1CCN(Cc2ccc(NC(=O)NC34CC5CC(C)(CC(C)(C5)C3)C4)c(F)c2)CC1 (centres unmarked) [CL-120, 1-(4-(3-((1r,7r)-3,5-dimethyladamantan-1-yl)ureido)-3-fluorobenzyl)-N-(2-hydroxypropyl) piperidine-4-carboxamide]	–	0.47	6
C=CC(=O)N1CCCN(C(=O)[C@H]2CCCN(Cc3ccc(NC(=O)NC45CC6CC(C)(CC(C)(C6)C4)C5)c(F)c3)C2)CC1 [CL-201, 1-(4-(((S)-3-(4-acryloyl-1,4-diaza-1-carbonyl)piperidin-1-yl)methyl)-2-fluorophenyl)-3-((1r,3R,5S,7S)-3,5-dimethyladamantan-1-yl) urea]	0.42	1.1	–
CC12CC3CC(C)(C1)CC(NC(=O)Nc1ccc(CN4CCC[C@H](C(=O)N5CCCN(C(=O)C6CC6)CC5)C4)cc1F)(C3)C2 [CL-204]	0.42	0.8	–
CCC(=O)N1CCC(CC(=O)N2CCCN(Cc3ccc(NC(=O)NC45CC6CC(C)(CC(C)(C6)C4)C5)c(F)c3)CC2)CC1 [GL-1, 1-((1r,3R,5S,7r)-3,5-dimethyladamantan-1-yl)-3-(2-fluoro-4-((4-(2-(1-propionylpiperidin-4-yl)acetyl)-1,4-diaza-1-yl)methyl)phenyl) urea]	0.33	0.07	–
CCC(C)C(=O)N1CCC(CC(=O)N2CCCN(Cc3ccc(NC(=O)NC45CC6CC(C)(CC(C)(C6)C4)C5)c(F)c3)CC2)CC1 [GL-2, 1-((1r,3R,5S,7r)-3,5-dimethyladamantan-1-yl)-3-(2-fluoro-4-((4-(2-(1-(2-methylbutyryl)piperidin-4-yl)acetyl)-1,4-diaza-1-yl)methyl)phenyl) urea]	0.77	0.16	–
CC(=O)N1CCC(CC(=O)N2CCCN(Cc3ccc(NC(=O)NC45CC6CC(C)(CC(C)(C6)C4)C5)c(F)c3)CC2)CC1 [GL-3, 1-(4-((4-(2-(1-acetylpiperidin-4-yl)acetyl)-1,4-diaza-1-yl)methyl)-2-fluorophenyl)-3-((1r,3R,5S,7r)-3,5-dimethyladamantan-1-yl) urea]	0.49	0.11	–
CC12CC3CC(C)(C1)CC(NC(=O)Nc1ccc(CN4CCCN(C(=O)CC5CCN(CCO)CC5)CC4)cc1F)(C3)C2 [GL-21, 1-((1r,3R,5S,7r)-3,5-dimethyladamantan-1-yl)-3-(2-fluoro-4-((4-(2-(1-(2-hydroxyethyl)piperidin-4-yl)acetyl)-1,4-diaza-1-yl)methyl)phenyl) urea]	–	0.61	4.69
CC12CC3CC(C)(C1)CC(NC(=O)Nc1ccc(CN4CCCN(C(=O)CC5CCN(CC(O)CO)CC5)CC4)cc1F)(C3)C2 [GL-22, 1-(4-((4-(2-(1-(2,3-dihydroxypropyl)piperidin-4-yl)acetyl)-1,4-diaza-1-yl)methyl)-2-fluorophenyl)-3-((1r,3R,5S,7r)-3,5-dimethyladamantan-1-yl) urea]	58.1	1.25	–
CN(C)CCN1CCC(CC(=O)N2CCCN(Cc3ccc(NC(=O)NC45CC6CC(C)(CC(C)(C6)C4)C5)c(F)c3)CC2)CC1 [GL-23, 1-((1r,3R,5S,7r)-3,5-dimethyladamantan-1-yl)-3-(4-((4-(2-(1-(2-(dimethylamino)ethyl)piperidin-4-yl)acetyl)-1,4-diaza-1-yl)methyl)-2-fluorophenyl) urea]	2.59	0.67	–
